One experiment deals with JAK2 (Homo sapiens (Human), UniProt O60674). The experiment in a line: Inhibition of enzymatic JAK2 kinase activity (TR-FRET). Conditions: read-out: IC50 JAK. The format is biochemical. The essentials: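 TR-FRET read-out (Eu antibody donor, Ulight poly Glu-Tyr acceptor, 665/615 nm ratio) after a 60 min RT kinase reaction with ATP, begun following 30 min compound–enzyme preincubation. Stopped by EDTA; inhibition expressed as 100 minus % activity of positive control.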
In general terms: Time-resolved FRET reads energy transfer from a long-lived donor to a nearby acceptor.

Experiment [1] addresses Syk (356-635 amino acids) catalytic domain (Homo sapiens (Human), UniProt P43405). The experiment in a line: Inhibition of enzymatic Syk kinase activity (radiometric). The format is biochemical. Conditions: read-out: IC50 Syk. The essentials:
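Radiometric filter-binding format: 32P transfer from γ-32P-ATP onto pG4T, scintillation-counted after acid washes of P81 paper. Syk kinase domain (356-635), 0.035–7.5 ng per reaction, was exposed to compound for 30 minutes at room temperature before a 10-minute, 30° C. reaction with ATP (100 μM stock). Inhibition derived from counts with versus without compound.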

Structures can show the parent of a compound that is named as a salt. Some results are limits rather than exact numbers.

By IC50 is commonly meant the concentration needed to halve the response being measured.

JAK2, sequence (O60674 808-1132): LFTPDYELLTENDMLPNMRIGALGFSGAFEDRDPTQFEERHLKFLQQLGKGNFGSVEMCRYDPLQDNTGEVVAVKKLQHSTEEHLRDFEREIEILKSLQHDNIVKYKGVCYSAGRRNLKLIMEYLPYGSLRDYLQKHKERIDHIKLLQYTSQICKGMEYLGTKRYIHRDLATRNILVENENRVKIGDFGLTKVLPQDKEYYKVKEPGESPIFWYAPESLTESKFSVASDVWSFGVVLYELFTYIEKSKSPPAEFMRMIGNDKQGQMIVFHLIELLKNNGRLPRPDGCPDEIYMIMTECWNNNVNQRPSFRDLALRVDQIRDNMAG

`N#CCC1CCN(c2nc(Nc3ccc(OCCN4CCNCC4)cc3)c3c(=O)[nH]ncc3n2)CC1` [Example 150, 2-(1-(5-oxo-4-((4-(2-(piperazin-1-yl)ethoxy)phenyl)amino)-5,6-dihydropyrimido[4,5-d]pyridazin-2-yl)piperidin-4-yl)acetonitrile]: the IC50 is greater than 100 nM at JAK2 and less than 50 nM in experiment [1].
The corresponding values for `O=c1[nH]ncc2nc(-c3ccccc3)nc(Nc3ccc(OCCN4CCNCC4)cc3)c12` [Example 152, 2-phenyl-4-((4-(2-(piperazin-1-yl)ethoxy)phenyl)amino)pyrimido[4,5-d]pyridazin-5(6H)-one] are greater than 100 nM and less than 50 nM.
The corresponding values for `CC1CCN(c2nc(Nc3ccc(OCCN4CCNCC4)cc3)c3c(=O)[nH]ncc3n2)CC1` [Example 156, 2-(4-methylpiperidin-1-yl)-4-((4-(2-(piperazin-1-yl)ethoxy)phenyl)amino) pyrimido[4,5-d]pyridazin-5(6H)-one hydrochloride] are less than 100 nM and less than 50 nM.
On to `O=C1CN(c2ccc(Nc3nc(N4CCCCCC4)nc4cn[nH]c(=O)c34)cc2)CCN1` [Example 165, 2-(azepan-1-yl)-4-((4-(3-oxopiperazin-1-yl)phenyl)amino)pyrimido[4,5-d]pyridazin-5(6H)-one], for which the values for the 50% inhibitory concentration (IC50) (at JAK2; in experiment [1]) were less than 10 nM and less than 100 nM, respectively.
For `CN(C)CCOc1ccc(Nc2nc(N3CCCCCC3)nc3cn[nH]c(=O)c23)cc1` [Example 167, 2-(azepan-1-yl)-4-((4-(2-(dimethylamino)ethoxy)phenyl)amino)pyrimido[4,5-d]pyridazin-5(6H)-one] the same measures were less than 10 nM and less than 50 nM.
The corresponding values for `O=c1[nH]ncc2nc(N3CCCCCC3)nc(Nc3ccc(OCCC4CCNCC4)cc3)c12` [Example 168, 2-(azepan-1-yl)-4-((4-(2-(piperidin-4-yl)ethoxy)phenyl)amino)pyrimido[4,5-d]pyridazin-5(6H)-one] are less than 50 nM and less than 50 nM.
Turning to `O=c1[nH]ncc2nc(N3CCCCC3)nc(Nc3ccc(OCCN4CCNCC4)nc3)c12` [Example 181, 4-((6-(2-(piperazin-1-yl)ethoxy)pyridin-3-yl)amino)-2-(piperidin-1-yl)pyrimido[4,5-d]pyridazin-5(6H)-one], the IC50 (on JAK2; in experiment [1]) was greater than 100 nM each time.
As for `O=c1[nH]ncc2nc(N3CCCCCC3)nc(Nc3ccc(OCCN4CCNCC4)nc3)c12` [Example 182, 2-(azepan-1-yl)-4-((6-(2-(piperazin-1-yl)ethoxy)pyridin-3-yl)amino)pyrimido[4,5-d]pyridazin-5(6H)-one], the IC50 on JAK2 is less than 10 nM; in experiment [1], less than 100 nM.
For `CC(C)N(CCOc1ccc(Nc2nc(N3CCCCCC3)nc3cn[nH]c(=O)c23)cc1)C(C)C` [Example 188, 2-(azepan-1-yl)-4-((4-(2-(diisopropylamino)ethoxy)phenyl)amino) pyrimido[4,5-d]pyridazin-5(6H)-one] the same measures were less than 50 nM and less than 50 nM.
The corresponding values for `O=c1[nH]ncc2nc(N3CCCCCC3)nc(Nc3ccc(N4CCC(CCO)CC4)cc3)c12` [Example 195, 2-(azepan-1-yl)-4-((4-(4-(2-hydroxyethyl)piperidin-1-yl)phenyl)amino) pyrimido[4,5-d]pyridazin-5(6H)-one] are less than 10 nM and less than 10 nM.
For `N#CCC1CCN(c2nc(Nc3ccc(N4CCC(CCO)CC4)cc3)c3c(=O)[nH]ncc3n2)CC1` [Example 196, 2-(1-(4-((4-(4-(2-hydroxyethyl)piperidin-1-yl)phenyl)amino)-5-oxo-5,6-dihydropyrimido[4,5-d]pyridazin-2-yl)piperidin-4-yl)acetonitrile] the same measures were less than 10 nM and less than 10 nM.
For the compound `CCN1CCN(CCc2ccc(Nc3nc(N4CCC(CC#N)CC4)nc4cn[nH]c(=O)c34)cc2)CC1` [Example 197, 2-(1-(4-((4-(2-(4-ethylpiperazin-1-yl)ethyl)phenyl)amino)-5-oxo-5,6-dihydropyrimido[4,5-d]pyridazin-2-yl)piperidin-4-yl)acetonitrile], the IC50 (on JAK2; in experiment [1]) was less than 10 nM each time.
Regarding `O=c1[nH]ncc2nc(N3CCCCCC3)nc(Nc3ccc(CCN4CCNCC4)cc3)c12` [Example 198, 2-(azepan-1-yl)-4-((4-(2-(piperazin-1-yl)ethyl)phenyl)amino)pyrimido[4,5-d]pyridazin-5(6H)-one], the IC50 (on JAK2; in experiment [1]) was less than 10 nM in each case.
For `NCCOc1ccc(Nc2nc(N3CCCCCC3)nc3cn[nH]c(=O)c23)cc1` [Example 199, 4-((4-(2-aminoethoxy)phenyl)amino)-2-(azepan-1-yl)pyrimido[4,5-d]pyridazin-5(6H)-one], the IC50 (on JAK2; in experiment [1]) was less than 10 nM in each case.
Regarding `O=c1[nH]ncc2nc(N3CCCCCC3)nc(Nc3ccc(N4CCC(CO)CC4)cc3)c12` [Example 202, 2-(azepan-1-yl)-4-((4-(4-(hydroxymethyl)piperidin-1-yl)phenyl)amino) pyrimido[4,5-d]pyridazin-5(6H)-one], the 50% inhibitory concentration (IC50) at JAK2 was less than 10 nM; in experiment [1], less than 50 nM.
On to `O=c1[nH]ncc2nc(N3CCCCCC3)nc(Nc3ccc(OCCN4CCC(CO)CC4)cc3)c12` [Example 203, 2-(azepan-1-yl)-4-((4-(2-(4-(hydroxymethyl)piperidin-1-yl)ethoxy)phenyl)amino)pyrimido[4,5-d]pyridazin-5(6H)-one], for which the IC50 was less than 10 nM on JAK2 and less than 50 nM in experiment [1].
Take `N#CCC1CCN(c2nc(Nc3ccc(N4CCC(CCCO)CC4)cc3)c3c(=O)[nH]ncc3n2)CC1` [Example 205, 2-(1-(4-((4-(4-(3-hydroxypropyl)piperidin-1-yl)phenyl)amino)-5-oxo-5,6-dihydropyrimido[4,5-d]pyridazin-2-yl)piperidin-4-yl)acetonitrile]: the IC50 (at JAK2; in experiment [1]) was less than 50 nM each time.
For the compound `N#CCN1CCN(c2ccc(Nc3nc(N4CCCCCC4)nc4cn[nH]c(=O)c34)cc2)CC1` [Example 206, 2-(4-(4-((2-(azepan-1-yl)-5-oxo-5,6-dihydropyrimido[4,5-d]pyridazin-4-yl)amino)phenyl)piperazin-1-yl) acetonitrile], the IC50 at JAK2 was less than 10 nM; in experiment [1] it was less than 50 nM.
The corresponding values for `N#CCC1CCN(c2nc(Nc3ccc(N4CCN(CC#N)CC4)cc3)c3c(=O)[nH]ncc3n2)CC1` [Example 207, 2-(1-(4-((4-(4-(cyanomethyl)piperazin-1-yl)phenyl)amino)-5-oxo-5,6-dihydropyrimido[4,5-d]pyridazin-2-yl)piperidin-4-yl)acetonitrile] are less than 10 nM and less than 10 nM.
Take `O=c1[nH]ncc2nc(N3CCCCCC3)nc(Nc3ccc(N4CCC(O)CC4)nc3)c12` [Example 217, 2-(azepan-1-yl)-4-((6-(4-hydroxypiperidin-1-yl)pyridin-3-yl)amino)pyrimido[4,5-d]pyridazin-5(6H)-one]: the IC50 (at JAK2; in experiment [1]) was less than 50 nM throughout.
For the compound `N#CCC1CCN(c2nc(Nc3ccc(N4CCN(CCC(=O)O)CC4)cc3)c3c(=O)[nH]ncc3n2)CC1` [Example 220, 3-(4-(4-((2-(4-(cyanomethyl)piperidin-1-yl)-5-oxo-5,6-dihydropyrimido[4,5-d]pyridazin-4-yl)amino)phenyl)piperazin-1-yl)propanoic acid], the IC50 (on JAK2; in experiment [1]) was less than 10 nM each time.
For the compound `O=c1[nH]ncc2nc(N3CCCCCC3)nc(Nc3ccc(N4CCNCC4)nc3)c12` [Example 221, 2-(azepan-1-yl)-4-((6-(piperazin-1-yl)pyridin-3-yl)amino)pyrimido[4,5-d]pyridazin-5(6H)-one], the IC50 at JAK2 is less than 10 nM; in experiment [1], less than 50 nM.
For `O=c1[nH]ncc2nc(N3CCCCCC3)nc(Nc3ccc(-c4nnn(CCO)n4)cc3)c12` [Example 222, 2-(azepan-1-yl)-4-((4-(2-(2-hydroxyethyl)-2H-tetrazol-5-yl)phenyl)amino) pyrimido[4,5-d]pyridazin-5(6H)-one] the same measures were less than 50 nM and less than 100 nM.
As to `CC(C)(O)C(=O)N1CCN(c2ccc(Nc3nc(N4CCC(CC#N)CC4)nc4cn[nH]c(=O)c34)cc2)CC1` [Example 223, 2-(1-(4-((4-(4-(2-hydroxy-2-methylpropanoyl)piperazin-1-yl)phenyl)amino)-5-oxo-5,6-dihydropyrimido[4,5-d]pyridazin-2-yl)piperidin-4-yl) acetonitrile], the IC50 (at JAK2; in experiment [1]) was less than 10 nM throughout.
With `CCN(CC)CCOc1ccc(Nc2nc(N3CCC(CC#N)CC3)nc3cn[nH]c(=O)c23)cc1` [Example 224, 2-(1-(4-((4-(2-(diethylamino)ethoxy)phenyl)amino)-5-oxo-5,6-dihydropyrimido[4,5-d]pyridazin-2-yl)piperidin-4-yl)acetonitrile], the IC50 (on JAK2; in experiment [1]) was less than 50 nM throughout.
`O=c1[nH]ncc2nc(N3CCCCCC3)nc(Nc3ccc(-c4nn[nH]n4)cc3)c12` [Example 227, 4-((4-(2H-tetrazol-5-yl)phenyl)amino)-2-(azepan-1-yl)pyrimido[4,5-d]pyridazin-5(6H)-one]: the IC50 was less than 10 nM on JAK2 and less than 50 nM in experiment [1].
The corresponding values for `CCN1CCN(c2ccc(Nc3nc(N4CCCCCC4)nc4cn[nH]c(=O)c34)cn2)CC1` [Example 229, 2-(azepan-1-yl)-4-((6-(4-ethylpiperazin-1-yl)pyridin-3-yl)amino)pyrimido[4,5-d]pyridazin-5(6H)-one] are less than 10 nM and less than 50 nM.

Values taken from US10183944B2 (Asana Biosciences, LLC, priority 2011, dated 2019).
